Test results reported in patent US20110306606A1, “NOVEL 2,6-SUBSTITUTED-3-NITROPYRIDINE DERIVATIVE, METHOD FOR PREPARING SAME, AND PHARMACEUTICAL COMPOSITION INCLUDING SAME” (priority 2008, published 2011).

Test system: Osteoblasts (Calvarial cells)
Assay: Cytotoxicity test (MTT)
Conditions: 1 μM compound, 72 hours, in comparison with vehicle control
Description: For the preparation of osteoblasts (Calvarial cells), the calvaria were aseptically dissected from 1 to 2-day-old neonatal ICR mice and subjected to continuous reaction with a 0.2% collagenase solution to separate osteoblasts. The cell-suspended supernatant was centrifuged to recover osteoblasts which were grown to full confluence in an α-MEM supplemented with 10% FBS and then diluted to a desired cell density for use in the experiment.
Cytotoxicity of the compounds of the present invention was evaluated by carrying out the experiment described below.
The vehicle control group was established to contain 0.2% DMSO. 100 μL/well of the diluted drugs were dispensed into 96-well plates to which osteoblasts (calvarial cells) prepared in Experimental Example 1 were then added at a density of 1.0×10^4 cells/100 μL/well. Here, the final compound concentration in the cell culture was 1 μM, and the vehicle control group contained 0.1% DMSO. The cells were cultured in a 5% CO2 inhibitor at 37° for 72 hours. 25 μL of 3-(4,5-dimethyl-2-thiazolyl)-2,5-diphenyl-2H-tetrazolium bromide (MTT) dissolved in PBS (2 mg/mL) was added to each cell culture 4 hours before the end of culture. After completion of the reaction, the plates were centrifuged, the media were discarded, and 100 μL of formazan was added and dissolved in dimethyl sulfoxide (DMSO). Finally, the absorbance of the developed plates was measured at 540 nm. The cell viability was expressed as % concentration in comparison with the vehicle control group.

Structure (SMILES) | Cell viability (%) Calvarial cell [%]
Cc1ccc(Nc2nc(N(C)CC3OCCO3)ccc2[N+](=O)[O-])cc1 [Compound 4, 2-(4-methylphenylamino)-6-[(N-[1,3]-dioxolan-2-ylmethyl)methylamino]-3-nitropyridine] | 104
Cc1ccc(Nc2nc(NCc3ccncc3)ccc2[N+](=O)[O-])cc1 [Compound 8] | 92
COc1ccc(Nc2nc(N(C)CCO)ccc2[N+](=O)[O-])cc1 [Compound 24, 2-(4-methoxyphenylamino)-6-[(N-methyl-2-hydroxy)ethylamino]-3-nitropyridine] | 99
CN(CC1OCCO1)c1ccc([N+](=O)[O-])c(Nc2ccc(C(C)(C)C)cc2)n1 [Compound 33, 2-[4-(t-butyl)phenylamino]-6-[(N-[1,3]-dioxolan-2-ylmethyl)methylamino]-3-nitropyridine] | 93
CC1=NCCN1c1ccc([N+](=O)[O-])c(Nc2ccc(C#N)cc2)n1 [Compound 48, 2-(4-cyanophenylamino)-6-[(2-methyl-4,5-dihydro)imidazol-1-yl]-3-nitropyridine] | 103
Nc1ccc(Nc2nc(NCCN3CCOCC3)ccc2[N+](=O)[O-])cc1 [Compound 68, 2-[4-(amino)phenylamino]-6-[2-(morpholin-1-yl)ethylamino]-3-nitropyridine] | 103
Nc1ccc(Nc2nc(NCCCN3CCOCC3)ccc2[N+](=O)[O-])cc1 [Compound 69, 2-[4-(amino)phenylamino]-6-[3-(morpholin-1-yl)propylamino]-3-nitropyridine] | 110
Nc1cccc(Nc2nc(NCCN3CCOCC3)ccc2[N+](=O)[O-])c1 [Compound 83, 2-[3-(amino)phenylamino]-6-[2-(morpholin-1-yl)ethylamino]-3-nitropyridine] | 99
Nc1cccc(Nc2nc(NCCCN3CCOCC3)ccc2[N+](=O)[O-])c1 [Compound 84, 2-[3-(amino)phenylamino]-6-[3-(morpholin-1-yl)propylamino]-3-nitropyridine] | 108
CN(CC1OCCO1)c1ccc([N+](=O)[O-])c(Nc2ccc(N3CCOCC3)cc2)n1 [Compound 111, 2-(4-morpholinophenylamino)-6-[(N-[1,3]-dioxolan-2-ylmethyl)methylamino]-3-nitropyridine] | 95
CN(CC1OCCO1)c1ccc([N+](=O)[O-])c(Nc2ccc(F)c(F)c2)n1 [Compound 127, 2-[(3,4-difluoro)phenylamino]-6-[(N-[1,3]-dioxolan-2-ylmethyl)-methylamino]-3-nitropyridine] | 99
CCN(CCO)c1ccc([N+](=O)[O-])c(Nc2ccc(-c3csc(C4CCCCC4)n3)cc2)n1 [Compound 156, 2-[4-(2-cyclohexylthiazol-4-yl)phenylamino]-6-[(N-ethyl-2-hydroxyethyl)amino]-3-nitropyridine] | 108
CN1CCN(c2ccc([N+](=O)[O-])c(Nc3ccc(-c4csc(C5CCCCC5)n4)cc3)n2)CC1 [Compound 159] | 100
CCN(CC)c1ccc(Nc2nc(NC)ccc2[N+](=O)[O-])cc1F [Compound 175, 2-[(3-fluoro-4-diethylamino)phenylamino]-6-(methylamino)-3-nitropyridine] | 104
CCN(CC)c1ccc(Nc2nc(NC(C)C)ccc2[N+](=O)[O-])cc1F [Compound 176, 2-[(3-fluoro-4-diethylamino)phenylamino]-6-(isopropylamino)-3-nitropyridine] | 109
CCN(CC)c1ccc(Nc2nc(NC(C)(C)C)ccc2[N+](=O)[O-])cc1F [Compound 178, 2-[(3-fluoro-4-diethylamino)phenylamino]-6-(t-butylamino)-3-nitropyridine] | 109
CCN(CC)c1ccc(Nc2nc(N3CCC(O)CC3)ccc2[N+](=O)[O-])cc1F [Compound 179, 2-[(3-fluoro-4-diethylamino)phenylamino]-6-(4-hydroxypiperidino)-3-nitropyridine] | 104
CCN(CC)c1ccc(Nc2nc(-n3ccnc3C(C)C)ccc2[N+](=O)[O-])cc1F [Compound 180, 2-[(3-fluoro-4-diethylamino)phenylamino]-6-[(2-isopropyl)imidazol-1-yl]-3-nitropyridine] | 100
CCN(CC)c1ccc(Nc2nc(N3CCN=C3C)ccc2[N+](=O)[O-])cc1F [Compound 181, 2-[(3-fluoro-4-diethylamino)phenylamino]-6-[(2-methyl-4,5-dihydro)imidazol-1-yl]-3-nitropyridine] | 106
CCN(CC)c1ccc(Nc2nc(N3CCNCC3)ccc2[N+](=O)[O-])cc1F [Compound 182, 2-[(3-fluoro-4-diethylamino)phenylamino]-6-(piperazin-1-yl)-3-nitropyridine] | 101

Structure (SMILES) | Cell viability (%) Calvarial cell [%]
CCN(CC)c1ccc(Nc2nc(N3CCN(C)CC3)ccc2[N+](=O)[O-])cc1F [Compound 183, 2-[(3-fluoro-4-diethylamino)phenylamino]-6-(4-methylpiperazin-1-yl)-3-nitropyridine] | 113
CCN(CC)c1ccc(Nc2nc(N3CCOCC3)ccc2[N+](=O)[O-])cc1F [Compound 184, 2-[(3-fluoro-4-diethylamino)phenylamino]-6-morpholino-3-nitropyridine] | 110
CCN(CC)c1ccc(Nc2nc(NCc3cccnc3)ccc2[N+](=O)[O-])cc1F [Compound 185, 2-[(3-fluoro-4-diethylamino)phenylamino]-6-[(3-pyridyl)methylamino]-3-nitropyridine] | 111
CCN(CC)c1ccc(Nc2nc(NCc3ccncc3)ccc2[N+](=O)[O-])cc1F [Compound 186, 2-[(3-fluoro-4-diethylamino)phenylamino]-6-[(4-pyridyl)methylamino]-3-nitropyridine] | 113
CCN(CC)c1ccc(Nc2nc(N3CCC(N)CC3)ccc2[N+](=O)[O-])cc1F [Compound 187, 2-[(3-fluoro-4-diethylamino)phenylamino]-6-(4-aminopiperidino)-3-nitropyridine] | 102
CCN(CC)c1ccc(Nc2nc(NCCN3CCOCC3)ccc2[N+](=O)[O-])cc1F [Compound 188, 2-[(3-fluoro-4-diethylamino)phenylamino]-6-[2-(morpholin-1-yl)ethylamino]-3-nitropyridine] | 111
CCN(CC)c1ccc(Nc2nc(NCCCn3ccnc3)ccc2[N+](=O)[O-])cc1F [Compound 189, 2-[(3-fluoro-4-diethylamino)phenylamino]-6-[(3-imidazol-1-yl)propylamino]-3-nitropyridine] | 129
CCN(CC)c1ccc(Nc2nc(NCCCN3CCOCC3)ccc2[N+](=O)[O-])cc1F [Compound 190, 2-[(3-fluoro-4-diethylamino)phenylamino]-6-[(3-morpholin-1-yl)propylamino]-3-nitropyridine] | 123
O=[N+]([O-])c1ccc(N2CCC(O)CC2)nc1Nc1ccc(N2CCOCC2)c(F)c1 [Compound 194, 2-[(3-fluoro-4-morpholino)phenylamino]-6-(4-hydroxypiperidino)-3-nitropyridine] | 107
CC1=NCCN1c1ccc([N+](=O)[O-])c(Nc2ccc(N3CCOCC3)c(F)c2)n1 [Compound 195, 2-[(3-fluoro-4-morpholino)phenylamino]-6-[(2-methyl-4,5-dihydro)imidazol-1-yl]-3-nitropyridine] | 104
CC(C)c1nccn1-c1ccc([N+](=O)[O-])c(Nc2ccc(N3CCOCC3)c(F)c2)n1 [Compound 196, 2-[(3-fluoro-4-morpholino)phenylamino]-6-[(2-isopropyl)imidazol-1-yl]-3-nitropyridine] | 100
CN1CCN(c2ccc([N+](=O)[O-])c(Nc3ccc(N4CCOCC4)c(F)c3)n2)CC1 [Compound 200, 2-[(3-fluoro-4-morpholino)phenylamino]-6-(4-methylpiperazin-1-yl)-3-nitropyridine] | 107
CC(C)Nc1ccc([N+](=O)[O-])c(Nc2ccc(N3CCSCC3)c(F)c2)n1 [Compound 204, 2-[(3-fluoro-4-thiomorpholino)phenylamino]-6-(isopropylamino)-3-nitropyridine] | 102
CC1=NCCN1c1ccc([N+](=O)[O-])c(Nc2ccc(N3CCSCC3)c(F)c2)n1 [Compound 207, 2-[(3-fluoro-4-thiomorpholino)phenylamino]-6-[(2-methyl-4,5-dihydro)imidazol-1-yl]-3-nitropyridine] | 102
CC(C)c1nccn1-c1ccc([N+](=O)[O-])c(Nc2ccc(N3CCSCC3)c(F)c2)n1 [Compound 208, 2-[(3-fluoro-4-thiomorpholino)phenylamino]-6-[(2-isopropyl)imidazol-1-yl]-3-nitropyridine] | 101
CC(C)(C)Nc1ccc([N+](=O)[O-])c(Nc2ccc(N3CCSCC3)c(F)c2)n1 [Compound 211, 2-[(3-fluoro-4-thiomorpholino)phenylamino]-6-(t-butylamino)-3-nitropyridine] | 110
O=[N+]([O-])c1ccc(N2CCC(O)CC2)nc1Nc1ccc(N2CCNCC2)c(F)c1 [Compound 218, 2-[(3-fluoro-4-piperazino)phenylamino]-6-(4-hydroxypiperidino)-3-nitropyridine] | 96
CC(C)c1nccn1-c1ccc([N+](=O)[O-])c(Nc2ccc(N3CCNCC3)c(F)c2)n1 [Compound 219, 2-[(3-fluoro-4-piperazino)phenylamino]-6-[(2-isopropyl)imidazol-1-yl]-3-nitropyridine] | 89
CC(C)(C)Nc1ccc([N+](=O)[O-])c(Nc2ccc(N3CCNCC3)c(F)c2)n1 [Compound 222, 2-[(3-fluoro-4-piperazino)phenylamino]-6-(t-butylamino)-3-nitropyridine] | 95
